According to patent publication US20230117034A1, “PYRAZOLOTRIAZINES” (Bayer Aktiengesellschaft, priority 2019, published 2023):

What was measured:
[1] = target: CDK12/CycK (Homo sapiens, UniProt Q9NYV4); assay: CDK12/CycK high ATP kinase assay (TR-FRET, 2 mM ATP); type: biochemical; settings: 2 mM ATP (high ATP); median; read-out: CDK12/CyclinK, 2 mM ATP (high ATP), IC50-[mol/l] (median)
How it was run: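 Read-out is TR-FRET (Eu-anti-rabbit IgG, anti-phospho-c-Myc Ser62 antibody, streptavidin-XL665) after EDTA stop. Reaction ran 60 min at 22 °C using 1 µM biotin-peptide and high ATP (2 mM) with roughly 0.75 nM recombinant CDK12/CycK, after 15 min compound pre-binding; normalised emission ratios yield IC50.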

[2] = test system: BRCA1 mRNA expression in MDA-MB-231 cells; assay: qRT-PCR assay: BRCA1 mRNA expression in MDA-MB-231; type: cell-based, human; settings: Homo sapiens, MDA-MB-231, Inhibition of BRCA1 mRNA expression in MDA-MB-231 cells; median; read-out: RTqPCR-MDA-MB-231, IC50, BRCA1 (median)
How it was run: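 Human breast cancer cells, 200,000/well, were treated with test agents for 24 h without interruption after a 24 h settling period. Gene expression came from qPCR on cDNA made from 600 ng RNA, relative to GAPDH.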

CDK12/CycK, sequence (Q9NYV4 with tags, fused parts or gaps): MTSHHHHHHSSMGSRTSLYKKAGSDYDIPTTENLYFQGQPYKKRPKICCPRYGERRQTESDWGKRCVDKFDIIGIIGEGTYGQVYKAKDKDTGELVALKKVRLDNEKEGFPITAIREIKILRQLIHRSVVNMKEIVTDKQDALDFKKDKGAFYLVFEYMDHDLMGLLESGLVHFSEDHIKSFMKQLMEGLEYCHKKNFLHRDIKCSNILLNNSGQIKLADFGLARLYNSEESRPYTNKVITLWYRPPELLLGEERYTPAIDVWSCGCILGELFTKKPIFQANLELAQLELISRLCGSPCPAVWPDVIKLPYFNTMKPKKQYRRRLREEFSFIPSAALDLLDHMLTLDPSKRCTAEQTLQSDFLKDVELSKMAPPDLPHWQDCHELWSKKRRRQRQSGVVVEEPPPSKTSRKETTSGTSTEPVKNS
CDK12/CycK, sequence (O75909 1-300 partner limits assumed): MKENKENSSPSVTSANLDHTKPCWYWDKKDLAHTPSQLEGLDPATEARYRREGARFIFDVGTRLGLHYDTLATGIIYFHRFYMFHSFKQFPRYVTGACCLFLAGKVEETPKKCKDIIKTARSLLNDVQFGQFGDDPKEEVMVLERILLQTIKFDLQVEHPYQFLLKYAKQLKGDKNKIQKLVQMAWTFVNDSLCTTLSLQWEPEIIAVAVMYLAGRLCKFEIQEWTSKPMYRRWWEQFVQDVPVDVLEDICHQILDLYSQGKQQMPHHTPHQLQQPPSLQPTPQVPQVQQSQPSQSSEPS

| SMILES | IC50 [1] | IC50 [2] |
| --- | --- | --- |
| Fc1ccccc1-c1cnc(CNc2nc(N3CCOCC3)nc3c(Br)cnn23)[nH]1 [Example 86, 8-bromo-N-{[5-(2-fluorophenyl)-1H-imidazol-2-yl]methyl}-2-(morpholin-4-yl)pyrazolo[1,5-a][1,3,5]triazin-4-amine] | 1890 nM | 17.1 nM |
| CC(C)c1cnn2c(NCc3nc4ccccc4[nH]3)nc(N3CCOCC3)nc12 [Example 1, N-[(1H-benzimidazol-2-yl)methyl]-2-(morpholin-4-yl)-8-(propan-2-yl)pyrazolo[1,5-a][1,3,5]triazin-4-amine] | 5970 nM | 16.6 nM |
| COC(=O)C1CCN(c2nc(NCc3nc4ccccc4[nH]3)n3ncc(Br)c3n2)CC1 [Example 63, methyl 1-(4-{[(1H-benzimidazol-2-yl)methyl]amino}-8-bromopyrazolo[1,5-a][1,3,5]triazin-2-yl)piperidine-4-carboxylate] | 11500 nM | 341 nM |
| c1ccc2[nH]c(CNc3nc(N4CCOCC4)nc4c(C5CC5)cnn34)nc2c1 [Example 92, N-[(1H-benzimidazol-2-yl)methyl]-8-cyclopropyl-2-(morpholin-4-yl)pyrazolo[1,5-a][1,3,5]triazin-4-amine] | 3250 nM | 13.3 nM |
| Clc1ccc(-c2cnc(CNc3nc(N4CCOCC4)nc4c(Br)cnn34)[nH]2)cc1 [Example 72, 8-bromo-N-{[5-(4-chlorophenyl)-1H-imidazol-2-yl]methyl}-2-(morpholin-4-yl)pyrazolo[1,5-a][1,3,5]triazin-4-amine] | 547 nM | 38.6 nM |
| Fc1cccc(-c2cnn3c(NCc4nc5ccccc5[nH]4)nc(N4CCOCC4)nc23)c1 [Example 91, N-[(1H-benzimidazol-2-yl)methyl]-8-(3-fluorophenyl)-2-(morpholin-4-yl)pyrazolo[1,5-a][1,3,5]triazin-4-amine] | > 57100 nM | 85.5 nM |
| CC1(C)CN(c2nc(NCc3nnc(-c4ccccc4)[nH]3)n3ncc(Br)c3n2)CCO1 [Example 68, 8-bromo-2-(2,2-dimethylmorpholin-4-yl)-N-[(5-phenyl-4H-1,2,4-triazol-3-yl)methyl]pyrazolo[1,5-a][1,3,5]triazin-4-amine] | 5520 nM | 43.4 nM |
| CC(C)c1cnn2c(NCc3nc4ccccc4[nH]3)nc(N3CCN(C)CC3)nc12 [Example 2, N-[(1H-benzimidazol-2-yl)methyl]-2-(4-methylpiperazin-1-yl)-8-(propan-2-yl)pyrazolo[1,5-a][1,3,5]triazin-4-amine] | > 20000 nM | 20.8 nM |
| Brc1cnn2c(NCc3ncc(-c4cccnc4)[nH]3)nc(N3CCOCC3)nc12 [Example 84, 8-bromo-2-(morpholin-4-yl)-N-{[5-(pyridin-3-yl)-1H-imidazol-2-yl]methyl}pyrazolo[1,5-a][1,3,5]triazin-4-amine] | 2090 nM | 118 nM |
| Brc1cnn2c(NCc3ncc(-c4ccccn4)[nH]3)nc(N3CCOCC3)nc12 [Example 90, 8-bromo-2-(morpholin-4-yl)-N-{[5-(pyridin-2-yl)-1H-imidazol-2-yl]methyl}pyrazolo[1,5-a][1,3,5]triazin-4-amine] | 4420 nM | 13.7 nM |
| COC1CCN(c2nc(NCc3nc4ccccc4[nH]3)n3ncc(Br)c3n2)CC1 [Example 62, N-[(1H-benzimidazol-2-yl)methyl]-8-bromo-2-(4-methoxypiperidin-1-yl)pyrazolo[1,5-a][1,3,5]triazin-4-amine] | 5690 nM | 37.7 nM |
